Values of other authors in patent US8926084B2, “Polymerizable ink composition, ink cartridge containing the same, and inkjet printer” (Ricoh Company, Ltd., priority 2012, dated 2015).
Read-outs that look alike come from different tables or passages of the source.

Conditions: material evaluated as no skin sensitization or negative in MSDS has an SI value less than 3, cited from earlier work

SMILES | skin sensitization as mentioned in MSDS | skin sensitization as mentioned in MSDS (listed as triethylene glycol divinyl ether)
C=CC(=O)OCC(CC)(COC(=O)C=C)COC(=O)C=C [Trimethylol propane triacrylate (M-309), Trimethylol propane triacrylate] | Toagosei Company, Limited, skin sensitization causing | 
C=COCCOCCOCCOC=C [Triethylene glycol divinylether] |  | free from skin sensitization
